Data on one molecule can be found in patent EP4786468A1, “CRYSTALLINE FORM OF HDAC6 INHIBITOR AND PREPARATION METHOD THEREFOR” (Suzhou Genhouse Bio Co., Ltd., priority 2023, dated 2025).

Converted amounts (≈) assume the structure as drawn.

Type in all cases: physicochemical
Data set [1] is described as follows: Solubility in water (HPLC). To be noted: H2O, 37°C. How it is done:
The vial was stirred and observed in a 37°C water bath. If the sample dissolved completely, more sample was added until undissolved material remained after rotary mixing. The sample vial was sealed and stirred in a 37°C water bath for 24h, then centrifuged. The supernatant was filtered and the solubility was measured by HPLC.

Data set [2] in a line: Dynamic solubility in biorelevant media (HPLC). To be noted: 37°C. Here is the method: FaSSGF (Fasted State Simulated Gastric Fluid), FeSSGF (Fed State Simulated Gastric Fluid), FaSSIF (Fasted State Simulated Intestinal Fluid), and FeSSIF (Fed State Simulated Intestinal Fluid) are biorelevant media. These media better reflect the impact of the gastrointestinal physiological environment on drug release. Solubility tested in these media is closer to solubility in the human body environment.
The vial was stirred and observed in a 37°C water bath. If the sample dissolved completely, more sample was added until undissolved material remained after rotary mixing. The sample vial was sealed and stirred in a 37°C water bath for 24h, then centrifuged. The supernatant was filtered and the solubility was measured by HPLC. Table 13: Dynamic Solubility of Crystal Forms in Biorelevant Media

Data set [3] in a line: Stability of the crystal form under accelerated conditions (XRPD, HPLC). To be noted: for % Area: chemical stability. Here is the method: Solid samples separated under different conditions were evaluated for physical stability via XRPD testing for crystalline form and for chemical stability via HPLC testing for purity.
Appropriate amounts of crystal form I samples were taken and subjected to a stability experiment under accelerated conditions of 40 °C/75%RH/open/1 month. Physical stability was evaluated by XRPD testing. Table 14: Stability of crystal form I

The term solubility denotes the concentration that dissolves in the medium under given conditions. On to `O=C(N[C@@H]1CCCC[C@H]1N1Cc2ccc(-c3nnc(C(F)F)o3)cc2S1(=O)=O)C(F)F` [Crystal Form I], for which the solubility at 24 h is 49.8 µg/mL (≈ 108 µM) in data set [1]; 51.9 µg/mL (≈ 112 µM) in data set [2] (FaSSGF); 96.2 µg/mL (≈ 208 µM) in data set [2] (FaSSIF); 55 µg/mL (≈ 119 µM) in data set [2] (FeSSGF); 87.5 µg/mL (≈ 189 µM) in data set [2] (FeSSIF). Further, the solubility at 1 h was found to be 34.5 µg/mL (≈ 74.6 µM) in data set [2] (FaSSGF) and 45.5 µg/mL (≈ 98.4 µM) in data set [2] (FeSSGF). Also, in data set [3] (40 °C/75%RH/open/1 month), the “XRPD characteristic peaks (physical stability)” value is recorded as “remained unchanged”. For the same molecule, the “% Area” value is 99.51 % Area in data set [3] (40 °C/75%RH/open/1 month, HPLC peak of Compound of formula (I)) and 99.51 % Area in data set [3] (T0, HPLC peak of Compound of formula (I)).
